The source of these data is patent publication US20080009448A1, “Peptide Derivative” (priority 2006, published 2008).

Non-standard residues stand in square brackets, D forms with d. No end group written: not given here. βAla = NCCC(=O)O

Series [1] relates to male ddy mouse. Nature of the series: Evaluation of acute toxicity. The conditions noted are these: s.c.; for Number of mice died (out of five): within 72 to 96 hours. As for the experimental part:
Mice weighing in the range of 22 to 25 g, male ddy mouse, were employed. Number of mice out of five mice in each group that died within 72 to 96 hours recorded.

The conditions of series [2]: non-patent references 2-7, cited from earlier work.

Consider `CC(=N)N[C@@H](Cc1ccc(O)cc1)C(=O)N[C@H](CC[S+](C)[O-])C(=O)N[C@@H](Cc1ccccc1)C(=O)N(C)CCC(N)=O` (stereo partly drawn) [SS8225-04, Iminoethyl-[Tyr]-[D-Met(O)]-[Phe]-[N-MeβAla]-NH2], for which the “Lethality (%)” value in series [1] (dosage 6.25 mg/Kg (125 times the ED50)) is given as 0%; in series [1] (dosage 25 mg/Kg (500 times the ED50)) it was 0%; in series [1] (dosage 50 mg/Kg (1000 times the ED50)), 20%; in series [1] (dosage 100 mg/Kg (2000 times the ED50)), 20%. The “Number of mice died (out of five)” value worked out at 0 in series [1] (dosage 6.25 mg/Kg), 0 in series [1] (dosage 25 mg/Kg), 1 in series [1] (dosage 50 mg/Kg) and 1 in series [1] (dosage 100 mg/Kg). Moreover, the acute toxicity entry in series [1] (mice) was “satisfactorily low”.

Turning to “Nα-amidine-[Tyr]-[D-Arg]-[Phe]-[N-Methyl-β-Ala]-OH [ADAMB]”, in series [2], the “anti-nociceptive activity compared with morphine on oral administration” value is “about 3.8 times” and the “anti-nociceptive activity compared with morphine on subcutaneous administration” value is listed as “about 23 times”.

In the case of Y[dR]F[βAla] [TAPA], in series [2], the “anti-nociceptive activity compared with morphine on oral administration” value was “almost equal” and the “anti-nociceptive activity compared with morphine on subcutaneous administration” value is given as “nine times stronger”.
